Measurements published in PMC12500691 (Frontiers in Cellular and Infection Microbiology, 2025).

How the values were obtained:
SARS-CoV-2 ORF7a = SARS-CoV-2 ORF7a (Severe acute respiratory syndrome coronavirus 2, UniProt P0DTC7); assay: biochemical; format: binding, SARS-CoV-2 (Wuhan variant)
SARS-CoV-2 proteins = format: binding, SARS-CoV-2 (Wuhan variant)

SARS-CoV-2 ORF7a, sequence (P0DTC7 16-96): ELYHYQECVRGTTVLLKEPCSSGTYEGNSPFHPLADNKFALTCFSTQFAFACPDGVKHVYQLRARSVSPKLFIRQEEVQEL

Compound | Kd (SARS-CoV-2 ORF7a) [nM] | interaction with the SARS-CoV-2 proteins (SARS-CoV-2 proteins)
CC[C@H](C)[C@H](NC(=O)[C@H](CCCCN)NC(=O)[C@H](CCC(=O)O)NC(=O)[C@H](CCCCN)NC(=O)[C@H](CO)NC(=O)[C@H](CCCCN)NC(=O)[C@H](CCCNC(=N)N)NC(=O)[C@H](Cc1ccccc1)NC(=O)[C@H](Cc1ccccc1)NC(=O)[C@H](CC(=O)O)NC(=O)CNC(=O)[C@H](CC(C)C)NC(=O)[C@@H](N)CC(C)C)C(=O)NCC(=O)N[C@@H](CCCCN)C(=O)N[C@@H](CCC(=O)O)C(=O)N[C@@H](Cc1ccccc1)C(=O)N[C@@H](CCCCN)C(=O)N[C@@H](CCCNC(=N)N)C(=O)N[C@H](C(=O)N[C@H](C(=O)N[C@@H](CCC(N)=O)C(=O)N[C@@H](CCCNC(=N)N)C(=O)N[C@H](C(=O)N[C@@H](CCCCN)C(=O)N[C@@H](CC(=O)O)C(=O)N[C@@H](Cc1ccccc1)C(=O)N[C@@H](CC(C)C)C(=O)N[C@@H](CCCNC(=N)N)C(=O)N[C@@H](CC(N)=O)C(=O)N[C@@H](CC(C)C)C(=O)N[C@H](C(=O)N1CCC[C@H]1C(=O)N[C@@H](CCCNC(=N)N)C(=O)N[C@H](C(=O)N[C@@H](CCC(=O)O)C(=O)N[C@@H](CO)C(=O)O)[C@@H](C)O)C(C)C)[C@@H](C)CC)C(C)C)[C@@H](C)CC [LL-37] | 140 ± 80 | 
synthetic control peptide: synthetic control peptide with an alpha-helical structure and a length of 29 amino acids, purchased from Biomatik (DKDGDLKTQIEKLWTEVNALKEIQALQTVCL) |  | did not show an interaction with the SARS-CoV-2 proteins
